SMILES strings stand for the structures.

The target in assay [1] is T1, His-6Skp1-Skp2-Cks1 (Homo sapiens, UniProt P61024+Q13309).
T1 construct: His6-tagged human Skp2 (residues 89-424); Human full-length Cks1 was produced as described; made in house
In words: Differential scanning fluorimetry (protein melt). It counts as binding. Conditions: compound 75 μM; protein 1.5 μM. As for the experimental part:
Protein melt assays were carried out following the manufacturer's protocol on the LightCycler 480 System II (Roche) using Sypro Orange dye (Sigma). Fluorescence (465 nm excitation/580 nm detection) was acquired (10 data points/sec) at a ramp rate of 0.06° C./sec between 20° C. and 85° C. Melting temperatures were calculated using the LightCycler 480 Protein Melt analysis tool (Roche).
(In general: In DSF a fluorescence change marks the thermal transition of the protein.)

For assay [2], the system named is JeKo-1. In words: Cell viability, JeKo-1 mantle cell lymphoma. The following applies: 24 hours, CalcuSyn. In kind it is cell-based, human. As for the experimental part:
(§1) Viable and metabolically active cells were assayed using CellTiter-Blue (Promega) or PrestoBlue (Invitrogen) following manufacturer's instruction. In a 96 well plate format, 15×10^3 cells were pretreated with 0.1% Vehicle or increasing concentration of inhibitors as noted (for 16 h, 24 h, 48 h, and/or 72 hr) and fluorescence was detected on the SpectraMax M2e (Molecular Devices) after 30 min incubation with dye.

The subject of assay [3] is MCF-7. In words: Viable and metabolically active cells, MCF-7. The following applies: 16 h. It counts as cell-based, human. As for the experimental part:
as §1

For assay [4], the system named is ARP-1. Kind of assay: Viable cells, multiple myeloma ARP-1. It counts as cell-based, human. The following applies: 24 hours. As to the method:
as §1

Assay [5] deals with KSM-11. In words: Viable cells, multiple myeloma KSM-11. The following applies: 24 hours. It counts as cell-based, human. As for the experimental part:
as §1

In assay [6] the test system is LNCaP. In words: Cell cycle FACS analysis, LNCaP. It counts as cell-based, human. Conditions: 10 μM for 16 hours. As to the method:
Whole cell extracts were prepared and immunoblotted as previously described Dorrello et al., “S6K1- and betaTRCP-mediated Degradation of PDCD4 Promotes Protein Translation and Cell Growth,” Science 314:467-471 (2006), which is hereby incorporated by reference in its entirety. For knockdown of Skp2 or p27, shRNAs were induced with 2 ng/ml doxycycline for 48 hours, with the last 16 hours co-treated with 0.1% Vehicle or 10 μM inhibitors as indicated. For cycloheximide chase, cells were pretreated 16 h with 0.1% Vehicle or 10 μM inhibitors, followed by 20 ng/ml cycloheximide (Sigma) and whole cell extracts collected for each time point. Scanning densitometry was performed on immunoblots using Image J software. For cell cycle analysis, cells were treated with 0.1% Vehicle or 10 μM inhibitors for 16 h. 1×10^6 cells were fixed in 70% ethanol for 2 h, treated with 200 μg/ml RNase A (Invitrogen) for 30 minutes, and stained with 20 μg/ml Propidium Iodine (Sigma). All samples were assayed in triplicates. Signal was detected using the Becton Dickson LSRII flow cytometer and cell cycle profiles were analyzed with FloJo.
(In general: Flow cytometry measures light scatter and fluorescence of single cells or particles in a stream.)

In assay [7] the test system is ECC-1 cells. Kind of assay: ECC-1 cell proliferation (MTS assay). It counts as cell-based, human. Conditions: for Increase in nuclear p27 and inhibition of cell proliferation following Skp2 knock-down: ECC-1, Skp2 siRNA, knock-down by 85%; for Inhibition of cell proliferation: ECC-1 transfected with control siRNA (FIG. 14B). As to the method:
ECC-1 cells in complete media were seeded at 1.2×10^5/well in 12-well plates and after 24 h the cells were transfected with either control siRNA or 10 nM Skp2 siRNA using HiPerfect transfection reagent (Qiagen; Valencia, Calif.) and siRNA to three different sites including a pool of siRNAs as shown in the experiment, as previously described (Huang et al., “Estrogen and Progesterone Regulate p27kip1 Levels via the Ubiquitin-Proteasome System: Pathogenic and Therapeutic Implications for Endometrial Cancer,” PLoS One 7:e46072 (2012), which is hereby incorporated by reference in its entirety). […] To determine the effect of C2 and C20 on cell proliferation after knock-down of Skp2, the cells were seeded in 96-well plates at a density of 1×10^4 in complete media, transfected, synchronized, treated with C2 and C20, and cell proliferation determined, as described above.
On the technique in general: Tetrazolium assays rely on reduction of a dye to a coloured formazan, in cell work by metabolically active cells.

The subject of assay [8] is p27 in 501 Mel cells. Kind of assay: Cycloheximide p27 half-life in 501 Mel cells. In kind it is cell-based, human. Conditions: pretreated 16 hours with 10 μM inhibitor, vehicle half-life 1 hour. As for the experimental part: To assess the mechanism of p27 induction, cycloheximide half-lives were analyzed in 501 Mel cell lines pretreated with each inhibitor (10 μM) or 0.1% DMSO (vehicle). p27 degraded rapidly with a half-life of 1 hour with vehicle, and this rate was slowed by the inhibitors (FIG. 4C). […] Protein levels of Skp2 and Skp1 remained constant.
Whole cell extracts were prepared and immunoblotted as previously described Dorrello et al., “S6K1- and betaTRCP-mediated Degradation of PDCD4 Promotes Protein Translation and Cell Growth,” Science 314:467-471 (2006), which is hereby incorporated by reference in its entirety. For knockdown of Skp2 or p27, shRNAs were induced with 2 ng/ml doxycycline for 48 hours, with the last 16 hours co-treated with 0.1% Vehicle or 10 μM inhibitors as indicated. For cycloheximide chase, cells were pretreated 16 h with 0.1% Vehicle or 10 μM inhibitors, followed by 20 ng/ml cycloheximide (Sigma) and whole cell extracts collected for each time point. 20 ng/ml cycloheximide (Sigma) was added to each plate and whole cell extract was collected for each time point. Scanning densitometry was performed on immunoblots using Image J software. For cell cycle analysis, cells were treated with 0.1% Vehicle or 10 μM inhibitors for 16 h. […] Signal was detected using the Becton Dickson LSRII flow cytometer and cell cycle profiles were analyzed with FloJo.

The target of assay [9] is T2, His6-Skp2-Skp1-Cks1 complex (Homo sapiens, UniProt P61024+Q13309).
T2 construct: His6-tagged human Skp2 (residues 89-424); Human full-length Cks1 was produced as described; made in house
Kind of assay: Surface plasmon resonance (SPR). It counts as binding. The following applies: 1:1 interaction model; 25° C.

T2 sequence (Q13309 89-424 limits assumed): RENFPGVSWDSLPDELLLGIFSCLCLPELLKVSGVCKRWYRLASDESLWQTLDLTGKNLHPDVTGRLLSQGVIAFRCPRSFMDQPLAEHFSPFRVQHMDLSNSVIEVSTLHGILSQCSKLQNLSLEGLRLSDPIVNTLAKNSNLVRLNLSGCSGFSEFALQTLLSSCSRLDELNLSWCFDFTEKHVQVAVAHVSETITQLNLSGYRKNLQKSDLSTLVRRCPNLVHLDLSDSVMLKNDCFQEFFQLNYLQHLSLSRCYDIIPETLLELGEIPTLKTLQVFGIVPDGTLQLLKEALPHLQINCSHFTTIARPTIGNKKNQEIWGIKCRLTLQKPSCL
T2 sequence (P61024 whole entry, the tested form may be a part): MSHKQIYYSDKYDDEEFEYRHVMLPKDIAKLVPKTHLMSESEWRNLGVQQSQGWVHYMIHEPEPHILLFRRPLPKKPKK
T1 sequence (Q13309 89-424 limits assumed): as the sequence (Q13309 89-424 limits assumed) above
T1 sequence (P61024 whole entry, the tested form may be a part): as the sequence (P61024 whole entry, the tested form may be a part) above

`O=C(O)COc1ccc(Br)cc1C=C1SC(=S)N(Cc2cccnc2)C1=O` [Compound C1]: the “Shift of melting temperature (Tm) of purified protein complex” value in assay [1] is “shifted the melting temperature”. Besides, the IC50 – broadly, the concentration at which inhibition is half-maximal – in [2] is 4.8 µM; in assay [4], 3.84 µM; in assay [5], 1.84 µM. In [3], the “Rate of active cells” value is on record as “a lower rate of active cells”.
Turning to `COC(=O)C1=C(C)N(c2ccc(Br)cc2)C(=O)C1=Cc1ccccc1O` [Compound C2], in [6], the G1 cells entry was “a mild, but significant, increase in G1 cells” and the S phase cells entry is “a reduction in S phase cells”. Further, in assay [2], the IC50 was 9.3 µM. For the same compound, in [7], the “Increase in nuclear p27 and inhibition of cell proliferation following Skp2 knock-down” value was “completely abrogated”; the “Inhibition of cell proliferation” value is listed as 29%.
`O=C(O)COc1ccc(C=C2SC(=O)N(CC(=O)c3ccc(Cl)cc3)C2=O)cc1` [Compound C16]: the p27 half-life in [8] turned out to be 3 h.
As for `O=C(NN=Cc1cc(Br)cc(Br)c1O)C(=Cc1ccccc1O)NC(=O)c1ccccc1` [Compound C20], binding in assay [9] was put at a Kd of 47 ± 14 µM. Moreover, the p27 half-life in assay [8] came out at 5 h. In [7], the “Increase in nuclear p27 and inhibition of cell proliferation following Skp2 knock-down” value is given as “completely abrogated”; the “Inhibition of cell proliferation” value turned out to be 27%.
